Laboratory results published in US20030055065A1, “Tricyclic amide and urea compounds useful for inhibition of G-protein function and for treatment of proliferative diseases” (priority 1993, published 2003).
Where “and” joins values, the source holds several entries; their conditions need not be identical. Identical values can stand only once.

These compounds were tested against T1, farnesyl protein transferase (FPT), partially purified from rat brain (Rattus norvegicus, UniProt Q02293+Q04631) (assay: Inhibition of farnesyl protein transferase (transfer of [3H]farnesyl to Ras-CVLS)). Settings: (1.2) μM.
T1 construct: were partially purified from rat brain by ammonium sulfate fractionation followed by Q-Sepharose
Assay type: biochemical
Experimental: 1. In vitro enzyme assays: Inhibition of farnesyl protein transferase and geranylgeranyl protein transferase.
Human farnesyl protein transferase was also expressed in E. coli, using cDNA clones encoding both the α and β subunits. […] Human farnesyl protein transferase was partially-purified from the soluble protein fraction of E. coli as described above. […] Two forms of val^12-Ha-Ras protein were prepared as substrates for these enzymes, differing in their carboxy terminal sequence. One form terminated in cysteine-valine-leucine-serine (Ras-CVLS) the other in cystein-valine-leucine-leucine (Ras-CVLL). Ras-CVLS is a substrate for the farnesyl protein transferase while Ras-CVLL is a substrate for geranylgeranyl protein transferase I. The cDNAs encoding these proteins were constructed so that the proteins contain an amino-terminal extension of 6 histidine residues. Both proteins were expressed in Escherichia coli and purified using metal chelate affinity chromatography. The radiolabelled isoprenyl pyrophosphate substrates, [^3H]farnesyl pyrophosphate and [3H]geranylgeranyl pyrophosphate, were purchased from DuPont/New England Nuclear.
The reaction was allowed to proceed for 30 minutes at room temperature and then stopped with 0.5 ml of 4% sodium dodecyl sulfate (SDS) followed by 0.5 ml of cold 30% trichloracetic acid (TCA). Samples were allowed to sit on ice for 45 minutes and precipitated Ras protein was then collected on GF/C filter paper mats using a Brandel cell harvester. […] Percent inhibition was calculated relative to the DMSO vehicle control.

T1 sequence (Q02293 whole entry, one chain of several): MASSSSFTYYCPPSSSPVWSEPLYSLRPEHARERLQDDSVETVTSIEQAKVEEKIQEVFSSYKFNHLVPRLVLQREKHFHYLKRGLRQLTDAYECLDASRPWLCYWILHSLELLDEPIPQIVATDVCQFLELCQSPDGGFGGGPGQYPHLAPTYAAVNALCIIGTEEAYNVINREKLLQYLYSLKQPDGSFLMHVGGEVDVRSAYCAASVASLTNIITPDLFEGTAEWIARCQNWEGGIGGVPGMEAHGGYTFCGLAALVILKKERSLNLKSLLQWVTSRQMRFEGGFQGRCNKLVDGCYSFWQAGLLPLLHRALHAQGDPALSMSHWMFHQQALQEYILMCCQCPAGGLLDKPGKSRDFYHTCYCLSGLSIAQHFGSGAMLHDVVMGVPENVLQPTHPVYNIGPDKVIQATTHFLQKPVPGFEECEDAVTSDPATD

FPT inhibition at the concentration in parentheses | SMILES
22 (1.2) | O=C(Nc1cc[n+]([O-])cc1)N1CCC(=C2c3ccc(Cl)cc3CCc3cc(Cl)ccc32)CC1 [Example 422-A]

Same assay, conditions: (1.3) μM

FPT inhibition at the concentration in parentheses | SMILES
29 (1.30) | CN1CCC(CC(=O)N2CCC(=C3c4ccc(Cl)cc4CCc4cc(F)cnc43)CC2)CC1 [Example 411-R]

Same assay, conditions: Ras-CVLS farnesylation, partially purified rat brain FPT; read-out: FPT IC50

SMILES | IC50
O=C(c1cc[nH]c(=O)c1)N1CCC(=C2c3ccc(Cl)cc3CCc3cccnc32)CC1 [Example 25] | 6.25 µM
CC(C)(C(=O)N1CCC(C2c3ccc(Cl)cc3C=Cc3cccnc32)CC1)c1cccnc1 (centres unmarked) [Example 268] | 1.22 µM
Cc1ccc2c(O)c(C(=O)N3CCC(=C4c5ccc(Cl)cc5CCc5cccnc54)CC3)cnc2n1 [Example 20] | 5.2 µM
CCNc1cnc2c(c1)CCc1cc(Cl)ccc1C2=C1CCN(C(=O)Cc2ccncc2)CC1 [Example 424] | 1.3 µM
CS(=O)(=O)Nc1cnc2c(c1)CCc1cc(Cl)ccc1C2=C1CCN(C(=O)Cc2ccncc2)CC1 [Example 404] | 4.6 µM
C#CC(=O)N1CCC(=C2c3ccc(Cl)cc3CCc3cccnc32)CC1 [Example 9] | 4 µM

Next, values leading:

IC50 | SMILES
6.9 µM | CSc1ccc(C(=O)N2CCC(=C3c4ccc(Cl)cc4CCc4cccnc43)CC2)cc1 [Example 108]
15.7 µM | CC(O)C(=O)N1CCC(=C2c3ccc(Cl)cc3CCc3cccnc32)CC1 (centres unmarked) [Example 116]
6 µM | O=C(Cc1cc[n+]([O-])cc1)N1CCC(=C2c3ccc(Cl)cc3CCc3ccc[n+]([O-])c32)CC1 [Example 232]
7.2 µM | CNc1ccc(C(=O)N2CCC(=C3c4ccc(Cl)cc4CCc4cccnc43)CC2)cn1 [Example 109]
10.3 µM | O=C(Cc1c(O)cccc1O)N1CCC(=C2c3ccc(Cl)cc3CCc3cccnc32)CC1 [Example 125]
11.1 µM | O=C(c1cccnc1O)N1CCC(=C2c3ccc(Cl)cc3CCc3cccnc32)CC1 [Example 114]
4 µM | CC(=O)N1CCC(=C2c3ccc(Cl)cc3CCc3cc(Br)c[n+]([O-])c32)CC1 [Example 74B]
7.7 µM | O=C1Cc2cc(Cl)ccc2C(=C2CCN(C(=O)Cc3cccnc3)CC2)c2ncccc21 [Example 279]

Same assay, conditions: at 10 μM

FPT inhibition | SMILES
0% @ | CC(C)(C)OC(=O)N[C@@H](Cc1ccccc1)C(=O)N1CCN(C2c3ccc(Cl)cc3CCc3cccnc32)CC1 (some centres unmarked) [Example 214]

Same assay, conditions: at 12 μM

FPT inhibition | SMILES
40% @ | O=C(NCC(=O)N1CCN(C2c3ccc(Cl)cc3CCc3cccnc32)CC1)OCc1ccccc1 (centres unmarked) [Example 207]
45% at 12 μM | O=C(c1cc[n+]([O-])cc1)N1CCC(=C2c3ccccc3CCc3cc(Cl)ccc32)CC1 [Example 146]

Same assay, conditions: at 12.8 μM

SMILES | FPT inhibition
Cc1cc(C(=O)N2CCC(=C3c4ccc(Cl)cc4CCc4cccnc43)CC2)cc(Cl)n1 [Example 124] | 37% at 12.8 μM

Same assay, conditions: at 13 μM

SMILES | FPT inhibition
O=C(c1cc2ccccc2[nH]1)N1CCC(=C2c3ccc(Cl)cc3CCc3cccnc32)CC1 [Example 40] | 44% at 13 μM

Same assay, conditions: at 15.5 μM

FPT inhibition | SMILES
38% at 15.5 μM | CC(=O)N1CCC(=C2c3cc(Cl)c(Cl)cc3CCc3cccnc32)CC1 [Example 71C]

Same assay, conditions: at 18.8 μM

FPT inhibition | SMILES
0% at 18.8 μM | CC(=O)N1CCC(=C2c3ccccc3CCc3cccnc32)CC1 [Example 147]

Same assay, conditions: enzyme inhibition; read-out: FPT IC50

SMILES | IC50
CN1CCC(CC(=O)N2CCC(=C3c4ccc(Cl)cc4CCc4cc(F)cnc43)CC2)CC1 [Example 411-R] | ~4 µM
CC(C)(C(=O)N1CCN(C2c3ccc(Cl)cc3CCc3cccnc32)CC1)c1cc[n+]([O-])cc1 (centres unmarked) [Example 425-A] | 2.2 µM
CN1CCC(CC(=O)N2CCN([C@@H]3c4ccc(Cl)cc4CCc4cccnc43)CC2)CC1 [Example 425-M] | 1.8 µM

The next lines start with the values.

IC50 | SMILES
0.85 µM | O=C(Cc1cc[n+]([O-])cc1)N1CCC(=C2c3ccc(Cl)cc3C=Cc3cccnc32)CC1 [Example 417-A]
1.27 µM | CCN1CCC(CC(=O)N2CCN(C3c4ccc(Cl)cc4CCc4cccnc43)CC2)CC1 (centres unmarked) [Example 429]
0.17 µM and 0.14 µM and 0.122 µM and 0.118 µM and 0.178 µM | CN1CCC(CC(=O)N2CCN(C3c4ccc(Cl)cc4CCc4cc(Br)cnc43)CC2)CC1 (centres unmarked) [425-O (5.126)]
6 µM | O=C(Cc1ccncc1)N1CCC(=C2c3ccc(Cl)cc3CCc3ccc(O)nc32)CC1 [Example 411-C]
0.27 µM | CN1CCCC(CC(=O)N2CCC(=C3c4ccc(Cl)cc4CCc4cc(Cl)cnc43)CC2)C1 (centres unmarked) [Example 411-V]
> 1.2 µM | O=C(Nc1cc[n+]([O-])cc1)N1CCC(=C2c3ccc(Cl)cc3CCc3cc(Cl)ccc32)CC1 [Example 422-A]
